Test results: patent US20100179151A1, “TRANSDERMAL APPLICATION OF TRIAZINES FOR CONTROLLING INFECTIONS WITH COCCIDIA” (BAYER ANIMAL HEALTH GMBH, priority 2006, published 2010)
Values joined by “and” are separate entries in the source; they are usually repeats but may differ in a detail not shown here. Equal values may be shown once. Values belong to the molecule of their own block, whether it stands above or below them.

Legend:
Type in all cases: in vivo
[1] = Serum concentrations of toltrazuril and ponazuril after pour-on application in calves
Protocol: (§1) A. Determination of the Serum Concentrations of Toltrazuril and Ponazuril after Pour-On Application in Calves and Rabbits On day 0, the formulation of Example 10 was applied externally at a dose of 20 mg per kg (body weight) to in each case three calves and rabbits. At the points in time specified in the tables, the serum concentrations of toltrazuril and its metabolite ponazuril (toltrazuril sulphone) were determined.

[2] = Serum concentrations of toltrazuril and ponazuril after pour-on application in rabbits; conditions: for Ponazuril in mg/l on day after the treatment (serum, metabolite of toltrazuril) / Toltrazuril in mg/l on day after the treatment (serum): individual animals 1-3
Protocol: as §1

Isospora suis = experiment: Activity of toltrazuril pour-on against artificially provoked infections in suckling pigs with Isospora suis; conditions: pour-on treatment
Protocol: B. Activity of Toltrazuril Pour-On Against Artificially Provoked Infections in Suckling Pigs with Isospora suis: 3 groups with 4 to 11 animals were formed. Group A was infected with oocysts and treated with the toltrazuril pour-on formulation of Example 10. Group B was not infected, but treated in the same manner, the dosage rate of group A and B being in each case 20 mg/kg body weight. Group C was infected with oocysts, but not treated with toltrazuril. The success of the treatment was determined by monitoring the live weight of the animals. To this end, the animals were weighed on different days, and the weight gain of the individual animals was determined The results are shown in Table 3.

[3] = Percutaneous absorption in pigs: detection of active substance and main metabolite in serum and body tissues; conditions: pour-on, serum, musculature, skin, liver, kidney
Description: Astonishingly, this is even the case in animal species with little hair. Animals with little hair, such as pigs, ensure the protective function of the outer integument via a thicker epidermis. It is entirely surprising that the active substance is absorbed across this thicker skin and in particular also across the stratum corneum of the skin, which is particularly thick in pigs. Moreover, the active substance can also not be taken up via the large number of hair follicles, as is in the case in other animal species with a thicker coat of hair.

Ponazuril in mg/l on day after the treatment (serum, metabolite of toltrazuril) ([1]; day 0, toltrazuril formulation of Example 10 pour-on 20 mg/kg, individual animals 1-3, LoQ 25 μg/l): <LoQ
Ponazuril in mg/l on day after the treatment (serum, metabolite of toltrazuril) ([1]; day 1, toltrazuril formulation of Example 10 pour-on 20 mg/kg, individual animals 1-3): 156 mg/L and 44 mg/L and 146 mg/L
Ponazuril in mg/l on day after the treatment (serum, metabolite of toltrazuril) ([1]; day 7, toltrazuril formulation of Example 10 pour-on 20 mg/kg, individual animals 1-3): 9715 mg/L and 2735 mg/L and 2615 mg/L
Ponazuril in mg/l on day after the treatment (serum, metabolite of toltrazuril) ([1]; day 13, toltrazuril formulation of Example 10 pour-on 20 mg/kg, individual animals 1-3): 4506 mg/L and 3440 mg/L and 1905 mg/L
Ponazuril in mg/l on day after the treatment (serum, metabolite of toltrazuril) ([1]; day 21, toltrazuril formulation of Example 10 pour-on 20 mg/kg, individual animals 1-3): 1394 mg/L and 733 mg/L and 1172 mg/L
Ponazuril in mg/l on day after the treatment (serum, metabolite of toltrazuril) ([2]; day 1, toltrazuril formulation of Example 10 pour-on 20 mg/kg): 1.79 mg/l and 1.38 mg/l (2×)
Ponazuril in mg/l on day after the treatment (serum, metabolite of toltrazuril) ([2]; day 2, toltrazuril formulation of Example 10 pour-on 20 mg/kg): 4.72 mg/L and 2.63 mg/L and 2.83 mg/L
Ponazuril in mg/l on day after the treatment (serum, metabolite of toltrazuril) ([2]; day 3, toltrazuril formulation of Example 10 pour-on 20 mg/kg): 5.03 mg/L and 4.07 mg/L and 3.42 mg/L
Structure (SMILES): Cc1cc(-n2c(=O)[nH]c(=O)n(C)c2=O)ccc1Oc1ccc(S(=O)(=O)C(F)(F)F)cc1 [Ponazuril, ponazuril]

Percutaneous absorption and metabolism after pour-on application [1]: percutaneously absorbed, and metabolised
Toltrazuril in mg/l on day after the treatment (serum) ([1]; day 0, formulation of Example 10 applied externally (pour-on) 20 mg/kg, individual animals 1-3, LoQ 25 μg/l): <LoQ
Toltrazuril in mg/l on day after the treatment (serum) ([1]; day 1, formulation of Example 10 pour-on 20 mg/kg, individual animals 1-3): 2180 mg/L and 650 mg/L and 2281 mg/L
Toltrazuril in mg/l on day after the treatment (serum) ([1]; day 7, formulation of Example 10 pour-on 20 mg/kg, individual animals 1-3): 9246 mg/L and 2042 mg/L and 2275 mg/L
Toltrazuril in mg/l on day after the treatment (serum) ([1]; day 13, formulation of Example 10 pour-on 20 mg/kg, individual animals 1-3): 2194 mg/L and 1806 mg/L and 702 mg/L
Toltrazuril in mg/l on day after the treatment (serum) ([1]; day 21, formulation of Example 10 pour-on 20 mg/kg, individual animals 1-3): 462 mg/L and 371 mg/L and 430 mg/L
Percutaneous absorption and metabolism after pour-on application [2]: percutaneously absorbed, and metabolised
Toltrazuril in mg/l on day after the treatment (serum) ([2]; day 1, formulation of Example 10 pour-on 20 mg/kg): 9.06 mg/L and 8.67 mg/L and 9.67 mg/L
Toltrazuril in mg/l on day after the treatment (serum) ([2]; day 2, formulation of Example 10 pour-on 20 mg/kg): 10.39 mg/L and 6.03 mg/L and 8.03 mg/L
Toltrazuril in mg/l on day after the treatment (serum) ([2]; day 3, formulation of Example 10 pour-on 20 mg/kg): 6.66 mg/L and 5.07 mg/L and 6.70 mg/L
Structure (SMILES): Cc1cc(-n2c(=O)[nH]c(=O)n(C)c2=O)ccc1Oc1ccc(SC(F)(F)F)cc1 [Toltrazuril, toltrazuril]
Control of massive infection with Isospora suis (Isospora suis): successfully controlled
Elimination of oocysts (parasitological efficacy) (Isospora suis): reduced elimination of oocysts
Incidence of diarrhoea (clinical efficacy) (Isospora suis): reduced incidence of diarrhoea
Weight development (clinical efficacy) (Isospora suis): better weight development
Percutaneous absorption: active substance and main metabolite detected in body tissues [3]: percutaneous absorption was also demonstrated
